Measurements as given in paper PMC9823006 (Nature Communications, 2023).
“And” between values parts separate entries of the source, which are not always exact repeats. Equal entries are not always repeated.

Assays:
KalbSec14 [1] = target: T1, KalbSec14 (Rattus norvegicus, UniProt P97924, N62Y/T46S); test: Liposome flotation binding assay (Accudenz gradient, Western blot); settings: for binding of Kal^bSec14 to liposomes containing the lipid: Golgi-mixture liposomes with 8% test lipid, result in words; for Fraction 1 protein content (top fraction, liposome-bound), densitometry, Ave. / Fraction 2 protein content, densitometry, Ave. / Fraction 3 protein content, densitometry, Ave. / Fraction 4 protein content (bottom fraction, unbound), densitometry, Ave.: mean of independent experiments; for Fraction 1 protein content (top fraction, liposome-bound), densitometry: normalized to total protein recovered from each gradient
T1 construct: His6 (TEV-cleavable) (N, cleaved yes); made in house; host or cells: E. coli BL21(DE3)
Protocol: Unilamellar liposomes formed by mixing synthetic dioleoyl phospholipids and cholesterol in proportions mimicking the membranes of the trans-Golgi network (Golgi-mixture) were incubated with Kal^bSec14. An Accudenz gradient was used to separate liposome-bound proteins, which were recovered from the top of the gradient (fraction 1), from unbound proteins, which remained at the bottom (fraction 4). Protein levels in each fraction were analyzed by Western blotting with an antibody to the Sec14 domain of Kalirin.
(§1) The synthetic and natural lipids used in flotation assays were purchased from Avanti Polar Lipids, Inc. (Supplementary Table 2). All powdered lipids were dissolved in chloroform per the manufacturer’s instructions. Liposomes were prepared as previously described. […] Individual test lipids were dried together with the control lipid mix under a nitrogen stream and lyophilized overnight. Each dried lipid film was reconstituted to a final concentration of 1 mM in HN buffer containing 20 mM HEPES (pH 7.4) and 150 mM NaCl. Each final lipid mixtures consisted of 52% DOPC, 20% DOPE, 5% DOPS, 15% cholesterol and 8% tested lipid; inclusion of a trace amount of fluorescent lipid (Liss Rhod PE) allowed for localization of liposomes following gradient fractionation (see below). Each lipid mixture underwent five freeze-thaw cycles separated by vigorous vortexing each time it was thawed. Using a mini-extruder, unilamellar liposomes were prepared by passing each lipid mixture 21 times through a polycarbonate membrane of 100-nm pore size. Hydrated lipid mixtures were stored at −20 °C for up to 1 month; liposomes were freshly prepared for each experiment.
(§2) Flotation assays were conducted following the protocol previously described. Accudenz (Accurate Chemical and Scientific Corp., Westbury, NY) solutions (80 and 20% weight/vol) were prepared in HN buffer. To remove any particulate material, the protein to be tested was first centrifuged at 436,000 g at 4 °C for 15 min in a TL-100 ultracentrifuge using a Beckman TLA100.2 fixed angle rotor. Freshly prepared unilamellar liposomes (50 μl) were combined with 0.2 μg of the centrifuged protein and incubated at room temperature for 30 min. The entire liposome/protein mixture was then combined with 50 μl of 80% Accudenz at the bottom of an ultracentrifuge tube and carefully mixed to completion by pipetting. The resulting mixture was overlayered with […] of 20% Accudenz and then with 50 μl of HN buffer. Samples were centrifuged at 259,000 g at 4 °C for 30 min in the same ultracentrifuge using a Beckman TLS55 swinging bucket rotor. Gradients were then divided into four 100-μl fractions, which were carefully collected from the bottom of the tube using gel loading micropipette tips. Each fraction was analyzed for liposome and protein content using spectrophotometry (546-nm excitation/571-nm emission) and Western blot, respectively. Only those assays with at least 90% of the Liss Rhod PE marker recovered in the top fraction (fraction 1) were used for Western bloting analysis.
(§3) For Western bloting analysis, equal aliquots of each gradient fraction were denatured in 1× Laemmli sample buffer, fractionated on 15% acrylamide gels, and transferred to PVDF membranes. The protein content was detected using a custom-made rabbit antibody to the Sec14 domain of Kalirin (CT302[69], 1:3000) and an HRP-tagged goat anti-rabbit IgG (H + L) secondary antibody (catalog # 31460, 1:6000; ThermoFisher Scientific). SuperSignal West chemiluminescent substrate (Thermo Scientific) and a Syngene PXi digital imaging system (Synoptics Group) were used to visualize blots, with exposures adjusted to be in the linear range.

Kal^Sec14 = target: T2, Kal^Sec14 (Rattus norvegicus, UniProt P97924, N62Y/T46S); test: as above; settings: Suppl. Fig. 9b,c; for Densitometry values for the Western blots, Fraction 1, Ave. / Densitometry values for the Western blots, Fraction 2, Ave. / Densitometry values for the Western blots, Fraction 3, Ave. / Densitometry values for the Western blots, Fraction 4, Ave.: average, biological replication ≥ 3; for Densitometry values for the Western blots, Fraction 1 / Densitometry values for the Western blots, Fraction 2 / Densitometry values for the Western blots, Fraction 3 / Densitometry values for the Western blots, Fraction 4: individual experiments (Exp. 1-4)
T2 construct: 19.4 kDa); His6 (TEV-cleavable) (N, cleaved yes); made in house; host or cells: E. coli BL21(DE3)
Protocol: as §1, §2
as §3, with “range. After background subtraction, bands were quantified using the GeneSys software provided with the imaging system, and data were represented as a proportion of total protein recovered. Uncropped blots, quantification of each data point and exact P-values are provided in the Source Data file. […]” for “range.”
a. Representative Western blots from flotation assays with Kal Sec14 alone (Control), and Kal Sec14 with the control lipid mix (Lipo) or with the lipid mix containing the indicated additional lipid. After binding and separation of liposome bound Kal Sec14 from unbound Kal Sec14 on Accudenz gradients, the protein content of four gradient fractions was dete rmined by immunoblot; liposomes were recovered from the top fraction (fraction 1). Source data are […]

KalbSec14 [2] = target: T1, KalbSec14; test: Isothermal titration calorimetry (preliminary); type: binding; settings: preliminary ITC, data not shown
[3] = normalized to total protein recovered, test lipid 8% of liposome lipid
[4] = single experiments, test lipid 8% of liposome lipid
[5] = single experiments, normalized to total protein recovered, test lipid 8% of liposome lipid

| binding of Kal^bSec14 to liposomes containing the lipid (KalbSec14 [1]) | Fraction 1 protein content (top fraction, liposome-bound), densitometry, Ave. (KalbSec14 [1]; [3]) | Fraction 2 protein content, densitometry, Ave. (KalbSec14 [1]; [3]) | Fraction 3 protein content, densitometry, Ave. (KalbSec14 [1]; [3]) | Fraction 4 protein content (bottom fraction, unbound), densitometry, Ave. (KalbSec14 [1]; [3]) | Fraction 1 protein content (top fraction, liposome-bound), densitometry (KalbSec14 [1]; [4]) | Fraction 3 protein content, densitometry (KalbSec14 [1]; [5]) | Fraction 4 protein content (bottom fraction, unbound), densitometry (KalbSec14 [1]; [5]) | Densitometry values for the Western blots, Fraction 1, Ave. (Kal^Sec14) | Densitometry values for the Western blots, Fraction 2, Ave. (Kal^Sec14) | Densitometry values for the Western blots, Fraction 3, Ave. (Kal^Sec14) | Densitometry values for the Western blots, Fraction 4, Ave. (Kal^Sec14) | Densitometry values for the Western blots, Fraction 1 (Kal^Sec14) | Densitometry values for the Western blots, Fraction 2 (Kal^Sec14) | Densitometry values for the Western blots, Fraction 3 (Kal^Sec14) | Densitometry values for the Western blots, Fraction 4 (Kal^Sec14) | ITC signal (KalbSec14 [2]) | Fraction 2 protein content, densitometry (KalbSec14 [1]; [5]) | Structure (SMILES) |
| --- | --- | --- | --- | --- | --- | --- | --- | --- | --- | --- | --- | --- | --- | --- | --- | --- | --- | --- |
| precludes binding | 0.0259 | 0.0121 | 0.11 | 0.85 | 0.03 and 0.0163 and 0.0322 | 0.10 and 0.15 and 0.0759 | 0.86 and 0.83 and 0.87 | 0.03 | 0.01 | 0.11 | 0.85 | 0.0333 and 0.0235 and 0.03 | 0.00764 and 0.00497 and 0.0174 | 0.08 and 0.10 and 0.15 | 0.87 and 0.81 |  |  | CCCCCCCCCCCCCC(=O)OC[C@H](COP(=O)([O-])OCC[N+](C)(C)C)OC(=O)CCCCCCCCCCCCC [DMPC, 1,2-dimyristoyl-sn-glycero-3-phosphocholine] |
| fail to interact | 0.028 | 0.00535 | 0.18 | 0.79 | 0.0252 and 0.03 |  | 0.70 and 0.76 and 0.89 | 0.0225 | 0.0117 | 0.17 | 0.80 | 0.0325 and 0.0143 and 0.02 | 0.00684 and 0.00931 and 0.019 | 0.10 and 0.16 and 0.24 | 0.86 and 0.82 and 0.72 |  |  | CCCCCCCCCCCCC(=O)OC[C@@H](O)COP(=O)(O)OC1C(O)C(O)C(O)C(O)C1O (some centres unmarked) [LPI13:0, 1-tridecanoyl-2-hydroxy-sn-glycero-3-phospho-(1'-myo-inositol)] |
| fail to interact | 0.03 | 0.0069 | 0.09 | 0.88 |  |  | 0.88 and 0.93 and 0.85 and 0.84 | 0.05 | 0.00866 | 0.09 | 0.86 | 0.07 and 0.05 and 0.025 and 0.0554 | 0.00695 and 0.01 and 0.00643 and 0.0108 | 0.07 and 0.05 and 0.16 | 0.86 and 0.89 and 0.90 and 0.78 |  |  | CCCCCCCCCCCCC(=O)OC[C@@H](O)COP(=O)(O)OC[C@H](N)C(=O)O [LPS13:0, 1-tridecanoyl-sn-glycero-3-phospho-L-serine] |
|  |  |  |  |  |  |  |  |  |  |  |  |  |  |  |  | no ITC signal was observed |  | CCCCCCCCCCOP(=O)([O-])OCC[N+](C)(C)C [FC10, decylphosphocholine] |
| fail to interact | 0.05 | 0.00765 | 0.0849 | 0.86 |  | 0.07 and 0.09 | 0.89 and 0.86 and 0.83 | 0.05 | 0.0118 | 0.0754 | 0.86 | 0.0538 and 0.045 and 0.06 | 0.00506 and 0.000399 and 0.03 | 0.0633 and 0.055 and 0.11 | 0.88 and 0.90 and 0.80 |  | 0.00729 and 0.00538 and 0.01 | CCCCCCCCCCCCCC(=O)OC[C@@H](O)COP(=O)(O)OCC(O)CO (mixture of isomers) [LPG14:0, 1-myristoyl-2-hydroxy-sn-glycero-3-phospho-(1'-rac-glycerol)] |
